Measurements: paper PMC3677620, “Cytotoxicity and In Vitro Antileishmanial Activity of Antimony (V), Bismuth (V), and Tin (IV) Complexes of Lapachol” (Bioinorganic Chemistry and Applications, 2013)
Values after ≈ are worked out from the molar mass of the structure shown. Values joined by “and” are separate entries in the source; they are usually repeats but may differ in a detail not shown here. Identical values can stand only once. Like-named read-outs stand apart in the source and are kept apart here.

How the values were obtained:
L. amazonensis [1] = assay: In vitro classic microscopic test, intracellular amastigotes in infected murine peritoneal macrophages; assay type: cell-based, Leishmania amazonensis (IFLA/BR/1967/PH8); details: for IC50, half-maximal inhibitory response (Figure 2): intracellular L. amazonensis, curve of one representative experiment; for IC50: the inhibitory concentration that killed 50% of the L. amazonensis: intracellular amastigotes in Balb/c peritoneal macrophages, 3 days exposure, based on percentage of infected macrophages; for IC50: Leishmania amazonensis, Peritoneal macrophage, 72 h
Experimental: The World Health Organization (WHO) reference strain L. amazonensis (IFLA/BR/1967/PH8) was used and typed as previously described. Promastigote forms were grown at 25°C in M199 medium (Sigma) supplemented with 10% heat-inactivated fetal calf serum (Cultilab), 40 mmol/L HEPES (Amersham), 0.1 mmol/L adenine (Sigma), 0.0005% hemin (Sigma), 0.0002% biotin (Sigma), 50 units/mL penicillin, and […] streptomycin (Invitrogen).
(§1) Animals were kept in the Animal Facility of the Centro de Pesquisas René Rachou/FIOCRUZ in strict accordance to the Guide for the Care and Use of Experimental Animals. The procedures were approved by the Internal Ethics Committee in Animal Experimentation (CEUA) of Fundação Oswaldo Cruz (FIOCRUZ), Brazil (Protocol L-042/08). Mice were euthanized with CO2 in an induction chamber prior to macrophage removal. Balb/c mice were injected intraperitoneally with 2 mL of 3% sodium thioglycollate medium. After 72 h, peritoneal macrophages were removed by washing with cold RPMI 1640 medium and enriched by adherence to round glass coverslips (13 mm) placed in a 4-well culture plate. Cells (2 × 10^5 cells/well) were cultured (37°C, 5% CO2, 18 h) in RPMI supplemented with 10% heat-inactivated FBS (fetal bovine serum) prior to infection with parasites. Macrophages were exposed to stationary phase promastigotes (2 × 10^6/well) at a final ratio of 1 : 10. The plates were incubated at 37°C, 5% CO2, for 5 h in BOD to allow internalization of parasites. Then, the medium was removed for the remaining noninternalized parasites. Negative control included only infected macrophages and medium. Incubations were tested in duplicate in two independent experiments. The substances were serial diluted with RPMI 1640 medium supplemented with 10% FBS at five different concentrations (50 → 3.1 μg/mL). For compounds (3) and (6), the dilution was 10 → 0.016 μg/mL. […] Infected macrophages were exposed daily to the compounds for 3 consecutive days. After this period, coverslips were collected, stained with Panoptic (Laborclin), and subsequently mounted with Entellan (Merck) on glass slides.
The in vitro classic microscopic test enables direct counting to determine the percentage of infected cells and/or the number of amastigotes. Here, the IC50 values were calculated based on the percentage of infected macrophages.

HepG2 cells = assay: Cytotoxicity test, MTT method, HepG2 cells; details: for MLD50: the minimum lethal dose that killed 50% of the cells, HepG2: MTT, 24 h; for MLD50, the minimum lethal dose (Figure 2): hepatoma HepG2 cell, curve of one representative experiment
Experimental: (§2) Balb/c murine peritoneal macrophages were obtained as described above. Cytotoxicity was determined using the MTT method (3-(4,5-dimethylthiazol-2-yl)-2,5-diphenyl tetrazolium bromide) (Sigma). HepG2 cells were kept in RPMI medium supplemented with 10% FBS, and confluent monolayers were trypsinized, washed in RPMI, and transferred to 96-well microtiter plates (4 × 10^4 cells/well) for 16–18 h. Murine macrophages were used in the concentration 2 × 10^5 cells/well in 96-well microtiter plates. The compounds were serial diluted in different concentrations (10 → 0.16 mg/mL). In both tests, the medium was removed, and the compounds were incubated for 24 h (37°C, 5% CO2). Colorimetric reaction was developed following the incubation with MTT (37°C, 5% CO2, 4 h) and addition of acidified isopropanol. The reaction was read spectrophotometrically (Spectramax M5, Molecular Devices, San Francisco, CA) with a 570 nm filter and a background of 670 nm. Incubations were tested in triplicate in two independent experiments. The minimum dose that killed 50% of the cells (MLD50) was determined, and the values were plotted to generate dose-response curves using Microcal Origin Software (Northampton, MA, USA).

murine macrophages = assay: Cytotoxicity test, MTT method, murine peritoneal macrophages; details: for MLD50: the minimum lethal dose that killed 50% of the cells, macrophages: murine peritoneal macrophages, MTT, 24 h
Experimental: as §1
as §2, with “The cell lineage HepG2 A16 was derived from a human hepatocellular carcinoma cell line HepG2 (ATCC HB-8065) and obtained from America Type Culture Collection line (ATCC). Balb/c” for “Balb/c”

L. amazonensis [2] = tested on: L. amazonensis; parameters: method as in PMID 15654435; details: strain MHOM/BR/77/LTB0016 ref 5; cited from earlier work
L. braziliensis = tested on: L. braziliensis; parameters: method as in PMID 15654435; details: cited from earlier work

[Cl][Bi]([Cl])([c]1ccccc1)([c]1ccccc1)[c]1ccccc1 [(4), Triphenylbismuth dichloride]
IC50, half-maximal inhibitory response (Figure 2) (L. amazonensis [1]): 5.51 µg/mL
IC50: the inhibitory concentration that killed 50% of the L. amazonensis (L. amazonensis [1]): 5.40 ± 0.16 µg/mL
MLD50: the minimum lethal dose that killed 50% of the cells, HepG2 (HepG2 cells): 183.75 ± 4.77 µg/mL
MLD50, the minimum lethal dose (Figure 2) (HepG2 cells): 187.1 µg/mL
MLD50: the minimum lethal dose that killed 50% of the cells, macrophages (murine macrophages): 25.15 ± 0.49 µg/mL

[Cl][Sb]([Cl])([c]1ccccc1)([c]1ccccc1)[c]1ccccc1 [(5), triphenylantimony dichloride]
IC50: the inhibitory concentration that killed 50% of the L. amazonensis (L. amazonensis [1]): 11.61 ± 7.85 µg/mL
MLD50: the minimum lethal dose that killed 50% of the cells, HepG2 (HepG2 cells): 157.46 ± 37.13 µg/mL
MLD50: the minimum lethal dose that killed 50% of the cells, macrophages (murine macrophages): 30.75 ± 6.01 µg/mL

[Cl][Sn]([c]1ccccc1)([c]1ccccc1)[c]1ccccc1 [(6), triphenyltin chloride]
IC50, half-maximal inhibitory response (Figure 2) (L. amazonensis [1]): 0.18 µg/mL
IC50: the inhibitory concentration that killed 50% of the L. amazonensis (L. amazonensis [1]): 0.10 ± 0.11 µg/mL
MLD50: the minimum lethal dose that killed 50% of the cells, HepG2 (HepG2 cells): 12.04 ± 8.42 µg/mL
MLD50, the minimum lethal dose (Figure 2) (HepG2 cells): 18 µg/mL
MLD50: the minimum lethal dose that killed 50% of the cells, macrophages (murine macrophages): 0.73 ± 0.13 µg/mL

CC(C)=CCC1=C(O)C(=O)c2ccccc2C1=O [(7), 2-hydroxy-3-(3′-methyl-2-butenyl)-1,4-naphthoquinone]
IC50 (L. amazonensis [1]; read-out: IC50: the inhibitory concentration that killed 50% of the L. amazonensis, intracellular amastigotes in Balb/c peritoneal macrophages, 3 days exposure, based on percentage of infected macrophages): > 10 µg/mL
IC50: the inhibitory concentration that killed 50% of the L. amazonensis (L. amazonensis [1]): 15.48 ± 5.23 µg/mL
MLD50: the minimum lethal dose that killed 50% of the cells, HepG2 (HepG2 cells): 201.77 ± 5.32 µg/mL
SI: selective index, HepG2 (HepG2 cells; MLD50/IC50 ratio, HepG2 cells versus L. amazonensis): 13.03
SI: selective index, macrophages (murine macrophages; MLD50/IC50 ratio, murine macrophages versus L. amazonensis): 11.92
MLD50: the minimum lethal dose that killed 50% of the cells, macrophages (murine macrophages): 184.65 ± 6.58 µg/mL
IC50 against L. amazonensis, previous studies (L. amazonensis [2]): 5.2 ± 0.70 µg/mL (≈ 21.5 µM)
IC50 observed for L. braziliensis (L. braziliensis): 11.9 ± 6.9 µg/mL

C[C@@H]1[C@H](O)[C@@H](C)/C=C/C=C/C=C/C=C/C=C/C=C/C=C/[C@H](O[C@@H]2O[C@H](C)[C@@H](O)[C@H](N)[C@@H]2O)C[C@@H]2O[C@](O)(C[C@@H](O)C[C@@H](O)[C@H](O)CC[C@@H](O)C[C@@H](O)CC(=O)O[C@H]1C)C[C@H](O)[C@H]2C(=O)O [Amphotericin B]
IC50 (L. amazonensis [1]; read-out: IC50: the inhibitory concentration that killed 50% of the L. amazonensis): 0.73 ± 0.6 µg/mL (≈ 0.79 µM)
MLD50: the minimum lethal dose that killed 50% of the cells, HepG2 (HepG2 cells): 644.59 ± 126.57 µg/mL
MLD50: the minimum lethal dose that killed 50% of the cells, macrophages (murine macrophages): 179.95 ± 8.84 µg/mL

(Lp)(Ph3Bi)O0.5 [(1)]
MLD50: the minimum lethal dose that killed 50% of the cells, HepG2 (HepG2 cells): 58.38 ± 8.47 µg/mL
MLD50: the minimum lethal dose that killed 50% of the cells, macrophages (murine macrophages): 32.4 ± 8.20 µg/mL

(Lp)(Ph3Sb)OH [(2)]
IC50: the inhibitory concentration that killed 50% of the L. amazonensis (L. amazonensis [1]): > 10 µg/mL and 18.27 ± 5.58 µg/mL
MLD50: the minimum lethal dose that killed 50% of the cells, HepG2 (HepG2 cells): 325.22 ± 89.40 µg/mL
MLD50: the minimum lethal dose that killed 50% of the cells, macrophages (murine macrophages): 130.65 ± 40.52 µg/mL

(Lp)(Ph3Sn) [(3)]
IC50, half-maximal inhibitory response (Figure 2) (L. amazonensis [1]): 0.15 µg/mL
IC50: the inhibitory concentration that killed 50% of the L. amazonensis (L. amazonensis [1]): 0.17 ± 0.03 µg/mL
MLD50: the minimum lethal dose that killed 50% of the cells, HepG2 (HepG2 cells): 12.01 ± 0.17 µg/mL
MLD50, the minimum lethal dose (Figure 2) (HepG2 cells): 11.9 µg/mL
MLD50: the minimum lethal dose that killed 50% of the cells, macrophages (murine macrophages): 1.6 ± 0.57 µg/mL
